Measured values from patent publication US20150258043A1, “USE OF SPHINGOID LONG CHAIN BASES AND THEIR ANALOGS IN TREATING AND PREVENTING BACTERIAL INFECTIONS” (YEDA RESEARCH AND DEVELOPMENT CO. LTD., priority 2012, published 2015).

System: sphingosine and ceramide on tracheal and bronchial epithelial cells
Test: Sphingosine and ceramide levels in airway epithelial cells after inhalation (immunostaining, in situ kinase assays)
Parameters: species or system mouse
Settings: CF (and CerS2 null) mice, in vivo inhalation
Description: Sphingosine levels were determined in the trachea and lung of wildtype (wt), Cftr- and CerS2 null mice (Teichgräber, V. et al. Nat Med 2008, 14, 382-391; Pewzner-Jung et al. J Biol Chem. 2010 Apr. 2; 285(14):10902-10) and human nasal tissues by (i) confocal microscopy analysis of paraffin sections stained with Cy3-coupled anti-sphingosine antibodies and (ii) by newly developed biochemical assays that employed sphingosine kinase assays to determine sphingosine in freshly isolated tracheal epithelial cells and on the surface of tracheal epithelial cells in situ. In the latter experiments the intact trachea was carefully opened and incubated with sphingosine kinase in the presence of [^32]PγATP. Lipids were extracted and the concentration of sphingosine-1-[^32]P was determined. In addition, surface sphingosine was immunoprecipitated from the surface of tracheal epithelial cells by binding of anti-sphingosine antibodies to the intact inner surface of the trachea, followed by washing, lysis, immobilization of immune complexes, extraction of bound sphingosine and quantification of sphingosine by kinase assays. […]
Mice were sacrificed and the trachea immediately removed. […] The TLC plates were exposed to radiography films, the spots were removed from the plates, and the incorporation of [^32P] into ceramide was measured by liquid scintillation counting. […]

SMILES: CCCCCCCCCCCCC/C=C/[C@@H](O)[C@@H](N)CO (stereo in doubt) [D-erythro-Sphingosine, (2S,3R)-2-aminooctadec-4-ene-1,3-diol]
- sphingosine levels on airway epithelial cells after inhalation: restored sphingosine levels
